How the values were obtained:
[1] = tested on: Jurkat cells; assay: Jurkat toxicity, Cell Titer Glo assay; format: cell-based; conditions: 18 hours incubation
Experimental: Seed 50 μl cells (1×10^6/ml) into each well containing 50 μl compound. […] Shake plates for 1 minute to mix cells and compound. Incubate plates at 37° C. […] Next day, harvest 50 μl cells from each well, add to 50 μl Cell Titer Glo reagent ([…]). Shake plates for 1 minute. Read on luminometer.

[2] = tested on: cultured human mast cells (CHMC); assay: CHMC high cell density IgE activation: hexos (hexosaminidase) release; format: cell-based; conditions: anti-IgE activation
How it was run: (§1)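 IgE-sensitized CHMC at 1-2×10^6 cells/ml were pretreated with compound for 1 h at 37 °C (0.5% DMSO final), then anti-IgE-stimulated for 1 h and supernatant collected. Hexosaminidase was read with a fluorogenic substrate. Pellets were re-incubated 7 h with compound before supernatant ELISAs.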

[3] = Immediacy (time course) of inhibitory activity; format: cell-based; conditions: FIG. 5
[4] = tested on: bone marrow derived mast cells (BMMC); assay: BMMC high cell density IgE activation: LTC4; format: cell-based, mouse; conditions: anti-IgE, second part of TABLE 1
How it was run: (§2)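 IgE-sensitized BMMC (1-3×10^6 cells/ml, MT buffer) were pretreated with compound for 1 h at 37 °C in 0.5% DMSO, then stimulated with DNP-BSA (6× stimulus, 60 ng/ml) for 1 h. Supernatant was taken, and cells were re-incubated 4–5 h in WEI-conditioned medium with compound. Mediators were quantified by ELISA.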

[5] = tested on: B-cell line BJAB; assay: BJAB toxicity, Cell Titer Glo assay; format: cell-based; conditions: 18 hours incubation
Experimental: Seed 50 μl cells (1×10^6/ml) into each well containing 50 μl compound. The final vehicle concentration is 0.5% DMSO, 1.5% MeOH. Shake plates for 1 minute to mix cells and compound. Incubate plates at 37° C. (5% CO2) for 18 hours. Next day, harvest 50 μl cells from each well, add to 50 μl Cell Titer Glo reagent ([…]). Shake plates for 1 minute. Read on luminometer.

[6] = tested on: bone marrow derived mast cells (BMMC); assay: BMMC high cell density IgE activation: TNFalpha; format: cell-based, mouse; conditions: anti-IgE, second part of TABLE 1, read-out: BMMC anti-IgE TNF-alpha IC50
How it was run: as §2

[7] = Sheep model of allergic asthma (Ascaris suum challenge); format: in vivo; conditions: aqueous suspension
Experimental: Sheep develop bronchoconstriction within minutes of exposure to inhaled antigen (Ascaris suum), with maximal airflow obstruction during the early allergic response (EAR). Release of preformed mast cell mediators is likely responsible for this early phase of airflow obstruction. […] In the sheep, AHR develops a few hours following antigen challenge, and can persist for up to 2 weeks.
In the sheep model of allergic asthma, sheep are administered aerosols of test article via an endotracheal tube, followed by an aerosol challenge with antigen extracted from the roundworm, Ascaris suum, to which the sheep are naturally allergic. Allergen challenge leads to direct bronchoconstriction (both EAR and LAR) and a persistent non-specific AHR. These three characteristics are similar to those seen in human allergic asthmatics. The activity of the test agent is determined by changes in the lung resistance (RL), which is calculated from measurements of transpulmonary pressure, flow, and respiratory volume. […] The LAR is a less pronounced increase in RL, which starts approximately 5-6 hours following allergen challenge and is resolved by 8 hours post-challenge. Twenty-four hours after the challenge, a dose response to carbachol is measured to determine the AHR, which is expressed as the dose of carbachol required to increase RL by 400% over baseline. (This measurement is referred to as the provocative concentration of carbachol that elicits a 400% increase in RL over baseline (PC400). The data are compared to historical control data for the same individual when administered a saline control aerosol and challenged with Ascaris suum.

[8] = tested on: cultured human mast cells (CHMC); assay: CHMC high cell density IgE activation: TNFalpha; format: cell-based; conditions: anti-IgE activation; read-out: CHMC high density TNF-alpha
Experimental: Inhibition of degranulation was measured at both low and high cell density by quantifying the release of the granule specific factors tryptase, histamine and hexosaminidase. Inhibition of release and/or synthesis of lipid mediators was assessed by measuring the release of leukotriene LTC4 and inhibition of release and/or synthesis of cytokines was monitored by quantifying TNF-α, IL-6 and IL-13. Tryptase and hexosaminidase were quantified using fluorogenic substrates as described in their respective examples. […] The protocols of the various assays are provided below.
After sensitizing, cells are counted, pelleted (1000 rpm, 5-10 minutes), and resuspended at 1-2×10^6 cells/ml in MT buffer. Add 100 ul of cell suspension to each well and 100 ul of compound dilutions. The final vehicle concentration is 0.5% DMSO. Incubate at 37° C. (5% CO2) for 1 hour. After 1 hour of compound treatment, stimulate cells with 6× anti-IgE. Mix wells with the cells and allow plates to incubate at 37° C. (5% CO2) for one hour. After 1 hour incubation, pellet cells (10 minutes, 1000 RPM) and collect 200 ul per well of the supernatant, being careful not to disturb pellet. Place the supernatant plate on ice. During the 7-hour step (see next) perform tryptase assay on supernatant that had been diluted 1:500. Resuspend cell pellet in 240 ul of CM media containing 0.5% DMSO and corresponding concentration of compound. Incubate CHMC cells for 7 hours at 37° C. (5% CO2). After incubation, pellet cells (1000 RPM, 10 minutes) and collect 225 ul per well and place in −80° C. until ready to perform ELISAS. ELISAS are performed on appropriately diluted samples (determined empirically for each donor cell population so that the sample measurement falls within the standard curve) following the supplier's instructions.

[9] = tested on: basophil cells; assay: Basophil ionomycin activation: histamine release assay; format: cell-based, human; conditions: Basophils
Experimental: (§3) The basophil activation assay was carried out using whole human peripheral blood from donors allergic to dust mites with the majority of the red blood cells removed by dextran sedimentation. Human peripheral blood was mixed 1:1 with 3% dextran T500 and RBCs were allowed to settle for 20-25 min. The upper fraction was diluted with 3 volumes of D-PBS and cells were spun down for 10 min at 1500 rpm, RT. Supernatant was aspirated and cells were washed in an equal volume MT-buffer. Finally, cells were resuspended in MT-buffer containing 0.5% DMSO in the original blood volume. 80 uL cells were mixed with 20 uL compound in the presence of 0.5% DMSO, in triplicate, in a V-bottom 96-well tissue culture plate. A dose range of 8 compound concentrations was tested resulting in a 10-point dose response curve including maximum (stimulated) and minimum (unstimulated) response. […] The cells were stimulated for 30 minutes at 37° C., 5% CO2. The plate was spun for 10 min at 1500 rpm at room temperature and 80 uL the supernatant was harvested for histamine content analysis using the histamine ELISA kit supplied by Immunotech. The ELISA was performed according to supplier's instructions.
Assays for ionomycin-induced basophil cell degranulation were carried out as described for the Basophil IgE or Dustmite Activation Assay (Section 6.4.6, supra), with the exception that following incubation with compound, cells were stimulated with 20 μl of 2 μM ionomycin.

[10] = tested on: cultured human mast cells (CHMC); assay: CHMC low cell density ionomycin activation: tryptase assay; format: cell-based
[11] = tested on: bone marrow derived mast cells (BMMC); assay: BMMC high cell density IgE activation: histamine; format: cell-based, mouse; conditions: anti-IgE, second part of TABLE 1
How it was run: as §2

[12] = tested on: cultured human mast cells (CHMC); assay: CHMC high cell density IgE activation: histamine; format: cell-based; conditions: anti-IgE activation
How it was run: as §1

[13] = tested on: bone marrow derived mast cells (BMMC); assay: BMMC high cell density IgE activation: hexosaminidase; format: cell-based, mouse; conditions: anti-IgE, second part of TABLE 1, read-out: BMMC anti-IgE hexos. IC50
How it was run: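 IgE-sensitized BMMC at 1-3×10^6 cells/ml preincubated 1 hour at 37° C. with compound (0.5% DMSO), then stimulated 1 hour with DNP-BSA (6× stimulus 60 ng/ml). Supernatant hexosaminidase measured with 2 mM 4-methylumbelliferyl-N-acetyl-glucosaminide substrate at 37° C., read at 5–30 minutes.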

[14] = tested on: bone marrow derived mast cells (BMMC); assay: BMMC high cell density ionomycin activation: hexosaminidase; format: cell-based, mouse; conditions: second part of TABLE 1, read-out: BMMC Ionomycin hexos. IC50
[15] = tested on: basophil cells; assay: Basophil IgE activation: histamine release assay; format: cell-based, human; conditions: Basophils, anti-IgE
Experimental: as §3

[16] = 45 mg/sheep, pretreatment 60 min

Compound | IC50 [1] [nM] | IC50 [2] [nM] | onset of inhibitory activity [3] | IC50 [4] [nM] | IC50 [5] [nM] | IC50 [6] [nM] | LAR and AHR (in words) ([7]; 45 mg/sheep, 60 minutes prior to allergen challenge) | AHR (% inhibition) [7, 16] [%] | EAR (% inhibition) [7, 16] [%] | LAR (% inhibition) [7, 16] [%] | EAR (in words) [7] | IC50 [8] [nM] | IC50 [9] [nM] | IC50 [10] [nM] | IC50 [11] [nM] | IC50 [12] [nM] | IC50 [13] [nM] | IC50 [14] [nM] | IC50 [15] [nM]
CNC(=O)COc1cccc(Nc2ncc(F)c(Nc3ccc4c(c3)OCCO4)n2)c1 [R926495, N4-(3,4-Ethylenedioxyphenyl)-5-fluoro-N2-[3-(N-methylamino)carbonylmethyleneoxyphenyl]-2,4-pyrimidinediamine] | > 10000 | 100 | immediacy of the inhibitory activity | 240 | > 10000 | 77 | blocked | 41 | 33 | 85 | greatly reduced | 362 | > 10000 | > 10000 | 89 | 66 | 56 |  | 
Fc1cnc(Nc2ccc3c(c2)OC(F)(F)C(F)(F)O3)nc1Nc1ccc2c(c1)OC(F)(F)C(F)(F)O2 [R926037, N2,N4-Bis(3,4-tetrafluoroethylendioxyphenyl)-5-fluoro-2,4-pyrimidinediamine] |  |  |  |  |  |  |  |  |  |  |  |  | > 10000 |  |  |  | > 10000 | > 10000 | > 10000

From US9499493B2, “2,4-pyrimidinediamine compounds and their uses” (Rigel Pharmaceuticals, Inc., priority 2002, dated 2016)
